# Experimental data as given in PMC6270516 (Molecules, 2013).
# Tests used:
# physchem [1] = conditions: fassgf or other biorelevant
# physchem [2] = conditions: simulated gastric fluid
solubility (physchem [1]) [µg/mL],solubility (physchem [2]) [µg/mL],melting point,Compound
265,> 120,,"CCOC(=O)CCn1c2c(c3ccccc31)CCN1C(=O)c3ccccc3N(C)C21 (centres unmarked) [2-22, N13-(2-(Ethoxycarbonyl)ethyl)evodiamine]"
148,60,116 to 118 °C,"COCCOCCn1c2c(c3ccccc31)CCN1C(=O)c3ccccc3N(C)C21 (centres unmarked) [2-17, N13-(2-(2-Methoxyethoxy)ethyl)evodiamine]"
160,60,216 °C (dec.),"CON=CCn1c2c(c3ccccc31)CCN1C(=O)c3ccccc3N(C)C21 (centres unmarked) [6-2, 2-(Evodiamin-N13-yl)acetaldehyde O-methyl oxime]"
322,60 to 120,118 to 120 °C,"CN1c2ccccc2C(=O)N2CCc3c(n(CCCCl)c4ccccc34)C21 (centres unmarked) [2-9, N13-(3-Chloropropyl)evodiamine]"
> 334,> 120,141 to 143 °C,"CCCCn1c2c(c3ccccc31)CCN1C(=O)c3ccccc3N(C)C21 (centres unmarked) [2-2, N13-Butylevodiamine]"
162,60,,"CC(C)=CCn1c2c(c3ccccc31)CCN1C(=O)c3ccccc3N(C)C21 (centres unmarked) [2-4, N13-(3-Methyl-2-butenyl)evodiamine]"
175,60,163 to 165 °C,"C=CCn1c2c(c3ccccc31)CCN1C(=O)c3ccccc3N(C)C21 (centres unmarked) [2-1, N13-Allylevodiamine]"
> 373,> 150,108 to 110 °C,"CC(C)CCn1c2c(c3ccccc31)CCN1C(=O)c3ccccc3N(C)C21 (centres unmarked) [2-8, N13-Isopentylevodiamine]"
174,60,,"CN1c2ccccc2C(=O)N2CCc3c(n(CC=O)c4ccccc34)C21 (centres unmarked) [compound 6, 2-(Evodiamin-N13-yl)acetaldehyde]"
55.7,20,189 to 191 °C,"CN1c2ccccc2C(=O)N2CCc3c(n(CC4CO4)c4ccccc34)C21 (centres unmarked) [2-24, N13-((Oxiran-2-yl)methyl)evodiamine]"
154,60,234 °C (dec.),"CN1c2ccccc2C(=O)N2CCc3c(n(CCCC(=O)O)c4ccccc34)C21 (centres unmarked) [compound 5, 4-(Evodiamin-N13-yl)butyric acid]"
322,60 to 120,143 to 145 °C,"CCCCCn1c2c(c3ccccc31)CCN1C(=O)c3ccccc3N(C)C21 (centres unmarked) [2-3, N13-Pentylevodiamine]"
71.9,30,265 to 268 °C,"CCOC(=O)CCCn1c2c(c3ccccc31)CCN1C(=O)c3ccccc3N(C)C21 (centres unmarked) [2-23, N13-(3-(Ethoxycarbonyl)propyl)evodiamine]"
72.3,30,65 to 67 °C,"CCCCCCCCn1c2c(c3ccccc31)CCN1C(=O)c3ccccc3N(C)C21 (centres unmarked) [2-5, N13-Octylevodiamine]"
73.7 to 147,30 to 60,245 °C (dec.),"CN1c2ccccc2C(=O)N2CCc3c(n(CC(=O)c4ccccc4)c4ccccc34)C21 (centres unmarked) [2-13, N13-(Benzonylmethyl)evodiamine]"
> 308,> 120,205 to 206 °C,"CCC(=O)OCCn1c2c(c3ccccc31)CCN1C(=O)c3ccccc3N(C)C21 (centres unmarked) [2-21, N13-(2-Propionyloxyethyl)evodiamine]"
166,89.4,251 to 253 °C,"CCOC(=O)CCCCn1c2c(c3ccccc31)CCN1C(=O)c3ccccc3N(C)C21 (centres unmarked) [2-28, N13-(4-(Ethoxycarbonyl)butyl)evodiamine]"
> 310,> 110,154 to 156 °C,"CC(C)Cn1c2c(c3ccccc31)CCN1C(=O)c3ccccc3N(C)C21 (centres unmarked) [2-7, N13-Isobutylevodiamine]"
,,130 to 132 °C,CN1c2ccccc2C(=O)N2CCc3c(n(CCCBr)c4ccccc34)C21 (centres unmarked)
320,> 220,166 to 168 °C,"CN1c2ccccc2C(=O)N2CCc3c(n(CCO)c4ccccc34)C21 (centres unmarked) [4-1, N13-(2-Hyroxyethyl)evodiamine]"
132,67.8,,"CN1c2ccccc2C(=O)N2CCc3c(n(CCCCCBr)c4ccccc34)C21 (centres unmarked) [2-26, N13-(5-Bromopentyl)evodiamine]"
41.6 to 83.1,15 to 30,166 to 168 °C,"COCCn1c2c(c3ccccc31)CCN1C(=O)c3ccccc3N(C)C21 (centres unmarked) [2-14, N13-(2-Methoxyethyl)evodiamine]"
> 320,> 120,131 to 133 °C,"CN1c2ccccc2C(=O)N2CCc3c(n(CCCCCCn4c5c(c6ccccc64)CCN4C(=O)c6ccccc6N(C)C54)c4ccccc34)C21 (centres unmarked) [3-2, N1,6-Bis-(evodiamin-N13-yl)hexane]"
167,60,,"CN1c2ccccc2C(=O)N2CCc3c(n(CC=NO)c4ccccc34)C21 (centres unmarked) [6-1, 2-(Evodiamin-N13-yl)acetaldehyde oxime]"
273,98,127 to 129 °C,"CN1c2ccccc2C(=O)N2CCc3c(n(CCCCCl)c4ccccc34)C21 (centres unmarked) [2-11, N13-(4-Chlorobutyl)evodiamine]"
142,60,158 to 160 °C,"CN1c2ccccc2C(=O)N2CCc3c(n(CCCc4ccccc4)c4ccccc34)C21 (centres unmarked) [2-6, N13-(3-Phenylpropyl)evodiamine]"
286,> 120,117 to 119 °C,"CCOC(Cn1c2c(c3ccccc31)CCN1C(=O)c3ccccc3N(C)C21)OCC (centres unmarked) [2-18, N13-(2,2-Diethoxyethyl)evodiamine]"
,,126 to 128 °C,CN1c2ccccc2C(=O)N2CCc3c(n(CCOCCOCCCl)c4ccccc34)C21 (centres unmarked)
> 350,> 120,217 to 219 °C,"CN1c2ccccc2C(=O)N2CCc3c(n(CCCCCn4c5c(c6ccccc64)CCN4C(=O)c6ccccc6N(C)C54)c4ccccc34)C21 (centres unmarked) [3-1, 1,5-Bis-(evodiamin-N13-yl)pentane]"
132,72.9,168 to 170 °C,"CCCOC(=O)Cn1c2c(c3ccccc31)CCN1C(=O)c3ccccc3N(C)C21 (centres unmarked) [2-27, N13-(Propoxycarbonylmethyl)evodiamine]"

Compound,solubility (physchem [1]) [µg/mL],solubility (physchem [2]) [µg/mL],melting point
"CC(=O)OCCCn1c2c(c3ccccc31)CCN1C(=O)c3ccccc3N(C)C21 (centres unmarked) [2-20, N13-(3-Acetoxypropyl)evodiamine]",278,> 120,
"CC(=O)OCCn1c2c(c3ccccc31)CCN1C(=O)c3ccccc3N(C)C21 (centres unmarked) [2-19, N13-(2-Acetoxyethyl)evodiamine]",308,> 120,211 to 213 °C
"CCCCOCCn1c2c(c3ccccc31)CCN1C(=O)c3ccccc3N(C)C21 (centres unmarked) [2-15, N13-(2-Butoxyethyl)evodiamine]",74.4 to 298,30 to 120,68 to 70 °C
